Data: ChEMBL document CHEMBL5543083, “3,5-Disubstituted-thiazolidine-2,4-dione hybrids as antidiabetic agents: Design, synthesis, in-vitro and In vivo evaluation” (Eur J Med Chem, 2024)
In brackets after ≈: the same amount, converted by molar mass. Activity calls are given as the source filed them. No cut-off for these calls is given here.

Tests used:
[1] = Toxicity in streptozotocin-induced Wistar rat assessed as decrease in tubular necrosis in kidney at 10 mg/kg, po measured up to 35 days; type: organism-based; details: in vivo, 840 h, time < 35 day
Rattus norvegicus [2] = assay: Antidiabetic activity against Wistar rat assessed as increase in serum creatine level at 10 mg/kg, po measured upto 35 days; type: functional, organism-based; details: time <= 35.0 day
Rattus norvegicus [3] = assay: Antidiabetic activity against streptozotocin-induced Wistar rat assessed as change in serum SGOT level at 10 mg/kg, po measured upto 35 days; type: functional, organism-based; details: time <= 35.0 day
Alpha-glucosidase = Alpha-glucosidase (Saccharomyces cerevisiae S288c, UniProt P53341+P38158+P07265); assay: Inhibition of yeast Alpha glucosidase 4-nitrophenyl-alpha-D-glucopyranoside incubated for 15 to 20 mins by Bio-rad microplate reader analysis; type: protein assay
[4] = Toxicity in streptozotocin-induced Wistar rat assessed as morphological changes in kidney at 10 mg/kg, po measured up to 35 days; type: organism-based; details: in vivo, 840 h, time < 35 day
PANC-1 [5] = assay: Cytotoxicity against human PANC-1 cells assessed as inhibition of cell growth; type: functional, cell-based; details: Homo sapiens, PANC-1; read-out: IC50
[6] = Antioxidant activity assessed as DPPH radical scavenging activity measured for 30 mins by spectrophotometric analysis; type: functional; details: read-out: IC50
Rattus norvegicus [7] = assay: Antidiabetic activity against streptozotocin-induced Wistar rat assessed as change in blood urea nitrogen level at 10 mg/kg, po measured upto 35 days; type: functional, organism-based; details: time <= 35.0 day
[8] = Toxicity in streptozotocin-induced Wistar rat assessed as decrease in basophil count at 10 mg/kg, po measured up to 35 days; type: organism-based; details: in vivo, 840 h, time < 35 day
Rattus norvegicus [9] = assay: Antidiabetic activity against streptozotocin-induced Wistar rat assessed as decrease in blood glucose level at 10 mg/kg, po measured at 60 mins by oral glucose test; type: functional, organism-based
[10] = Toxicity in streptozotocin-induced Wistar rat assessed as decrease in glomeruli shrinkage in kidney at 10 mg/kg, po measured up to 35 days; type: organism-based; details: in vivo, 840 h, time < 35 day
Alpha-amylase = molecular target: T1, Alpha-amylase (Sus scrofa domesticus, UniProt Q7M328); assay: Inhibition of porcine pancreatic Alpha-amylase using starch as substrate preincubated for 10 mins followed by substrate addition and measured after 15 mins by Bio-rad microplate reader analysis; details: read-out: IC50
T1 sequence (Q7M328 whole entry): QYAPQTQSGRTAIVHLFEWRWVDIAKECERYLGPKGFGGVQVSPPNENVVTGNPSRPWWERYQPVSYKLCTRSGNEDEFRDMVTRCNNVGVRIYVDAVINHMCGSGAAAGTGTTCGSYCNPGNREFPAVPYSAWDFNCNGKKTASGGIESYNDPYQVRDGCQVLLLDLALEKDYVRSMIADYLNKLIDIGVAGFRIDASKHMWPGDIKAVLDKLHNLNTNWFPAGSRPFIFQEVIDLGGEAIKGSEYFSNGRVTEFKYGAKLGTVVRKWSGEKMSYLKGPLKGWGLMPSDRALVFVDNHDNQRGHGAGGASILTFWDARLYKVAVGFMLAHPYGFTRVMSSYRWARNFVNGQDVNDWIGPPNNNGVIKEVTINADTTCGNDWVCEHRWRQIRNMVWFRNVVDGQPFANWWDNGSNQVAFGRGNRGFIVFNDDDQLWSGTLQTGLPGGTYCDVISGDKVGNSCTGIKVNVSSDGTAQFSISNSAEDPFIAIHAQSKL

Rattus norvegicus [11] = assay: Antidiabetic activity against streptozotocin-induced Wistar rat assessed as decrease in triglyceride level at 10 mg/kg, po measured upto 35 days; type: functional, organism-based; details: time <= 35.0 day
Rattus norvegicus [12] = assay: Antidiabetic activity against streptozotocin-induced Wistar rat assessed as change in BUN level at 10 mg/kg, po measured upto 35 days; type: functional, organism-based; details: time <= 35.0 day
[13] = Toxicity in streptozotocin-induced Wistar rat assessed as decrease in dilation of renal tubules in kidney at 10 mg/kg, po measured up to 35 days; type: organism-based; details: in vivo, 840 h, time < 35 day
Rattus norvegicus [14] = assay: Antidiabetic activity against streptozotocin-induced Wistar rat assessed as increase in IL1-beta level in Pancreas at 10 mg/kg, po measured upto 35 days; type: functional, organism-based; details: time <= 35.0 day
Rattus norvegicus [15] = assay: Antidiabetic activity against streptozotocin-induced Wistar rat assessed as decrease in SOD level at 10 mg/kg, po measured upto 35 days; type: functional, organism-based; details: time <= 35.0 day
[16] = Toxicity in streptozotocin-induced Wistar rat assessed as changes in organ to body weight ratio at 10 mg/kg, po measured up to 35 days; type: organism-based; details: in vivo, 840 h, time < 35 day
[17] = Toxicity in streptozotocin-induced Wistar rat assessed as decrease in eosinophil count at 10 mg/kg, po measured up to 35 days; type: organism-based; details: in vivo, 840 h, time < 35 day
Rattus norvegicus [18] = assay: Antidiabetic activity against Wistar rat assessed as effect on glutathione level at 10 mg/kg, po measured upto 35 days; type: functional, organism-based; details: time <= 35.0 day
PANC-1 [19] = assay: Induction of ROS production in high glucose-induced human PANC-1 cells assessed as maximum fluorescence intensity at 10 uM incubated for 30 mins DCFDA-staining based flow cytometry analysis (reference value: 15.09); type: functional; details: 0.5 h
Rattus norvegicus [20] = assay: Antidiabetic activity against streptozotocin-induced Wistar rat assessed as increase in PPAR-gamma level at 10 mg/kg, po measured upto 35 days by ELISA analysis; type: functional, organism-based; details: time <= 35.0 day
[21] = Toxicity in Wistar rat assessed as decrease in body weight at 10 mg/kg, po measured on day 35; type: organism-based; details: in vivo, 840 h, time 35 day
Rattus norvegicus [22] = assay: Antidiabetic activity against streptozotocin-induced Wistar rat assessed as effect on glutathione level at 10 mg/kg, po measured upto 35 days; type: functional, organism-based; details: time <= 35.0 day
[23] = Toxicity in Wistar rat assessed as decrease in body weight at 10 mg/kg, po measured on day 14; type: organism-based; details: in vivo, 336 h, time 14 day
Rattus norvegicus [24] = assay: Antidiabetic activity against streptozotocin-induced Wistar rat assessed as decrease in HDL level at 10 mg/kg, po measured upto 35 days; type: functional, organism-based; details: time <= 35.0 day
Rattus norvegicus [25] = assay: Antidiabetic activity against streptozotocin-induced Wistar rat assessed as increase in serum ALP level at 10 mg/kg, po measured upto 35 days; type: functional, organism-based; details: time <= 35.0 day
[26] = Toxicity in streptozotocin-induced Wistar rat assessed as change in blood lymphocyte count at 10 mg/kg, po measured up to 35 days; type: organism-based; details: in vivo, 840 h, time < 35 day
Rattus norvegicus [27] = assay: Antidiabetic activity against Wistar rat assessed as decrease in total cholesterol level at 10 mg/kg, po measured upto 35 days; type: functional, organism-based; details: time <= 35.0 day
Rattus norvegicus [28] = assay: Antidiabetic activity against streptozotocin-induced Wistar rat assessed as increase in TNF-alpha level in Pancreas at 10 mg/kg, po measured upto 35 days; type: functional, organism-based; details: time <= 35.0 day
Rattus norvegicus [29] = assay: Antidiabetic activity against streptozotocin-induced Wistar rat assessed as effect on blood glucose level at 10 mg/kg, po measured on day 4; type: functional, organism-based; details: time 4.0 day
[30] = Toxicity in streptozotocin-induced Wistar rat assessed as morphological changes in pancrease at 10 mg/kg, po measured up to 35 days; type: organism-based; details: in vivo, 840 h, time < 35 day
Rattus norvegicus [31] = assay: Antidiabetic activity against streptozotocin-induced Wistar rat assessed as change in serum SGPT level at 10 mg/kg, po measured upto 35 days; type: functional, organism-based; details: time <= 35.0 day
Rattus norvegicus [32] = assay: Antidiabetic activity against streptozotocin-induced Wistar rat assessed as decrease in MDA level at 10 mg/kg, po measured upto 35 days; type: functional, organism-based; details: time <= 35.0 day
Rattus norvegicus [33] = assay: Antidiabetic activity against streptozotocin-induced Wistar rat assessed as effect on blood glucose level at 10 mg/kg, po measured on day 1; type: functional, organism-based; details: time 1.0 day
Rattus norvegicus [34] = assay: Antidiabetic activity against streptozotocin-induced Wistar rat assessed as decrease in blood glucose level at 10 mg/kg, po measured at 30 mins by oral glucose test; type: functional, organism-based
Rattus norvegicus [35] = assay: Antidiabetic activity against streptozotocin-induced Wistar rat assessed as change in uric acid level at 10 mg/kg, po measured upto 35 days; type: functional, organism-based; details: time <= 35.0 day
Rattus norvegicus [36] = assay: Antidiabetic activity against streptozotocin-induced Wistar rat assessed as increase in serum creatine level at 10 mg/kg, po measured upto 35 days; type: functional, organism-based; details: time <= 35.0 day
[37] = Toxicity in streptozotocin-induced Wistar rat assessed as morphological changes in liver at 10 mg/kg, po measured up to 35 days; type: organism-based; details: in vivo, 840 h, time < 35 day
Rattus norvegicus [38] = assay: Antidiabetic activity against streptozotocin-induced Wistar rat assessed as effect on serum catalase level at 10 mg/kg, po measured upto 35 days; type: functional, organism-based; details: time <= 35.0 day
Rattus norvegicus [39] = assay: Antidiabetic activity against streptozotocin-induced Wistar rat assessed as increase in serum amylase level at 10 mg/kg, po measured upto 35 days by ELISA analysis; type: functional, organism-based; details: time <= 35.0 day
[40] = Antioxidant activity assessed as DPPH radical scavenging activity; type: functional
Alpha amylase = molecular target: T2, Alpha amylase (Homo sapiens, UniProt P0DUB6); assay: Inhibition of Alpha-amylase (unknown origin); type: protein assay
T2 sequence (P0DUB6 whole entry): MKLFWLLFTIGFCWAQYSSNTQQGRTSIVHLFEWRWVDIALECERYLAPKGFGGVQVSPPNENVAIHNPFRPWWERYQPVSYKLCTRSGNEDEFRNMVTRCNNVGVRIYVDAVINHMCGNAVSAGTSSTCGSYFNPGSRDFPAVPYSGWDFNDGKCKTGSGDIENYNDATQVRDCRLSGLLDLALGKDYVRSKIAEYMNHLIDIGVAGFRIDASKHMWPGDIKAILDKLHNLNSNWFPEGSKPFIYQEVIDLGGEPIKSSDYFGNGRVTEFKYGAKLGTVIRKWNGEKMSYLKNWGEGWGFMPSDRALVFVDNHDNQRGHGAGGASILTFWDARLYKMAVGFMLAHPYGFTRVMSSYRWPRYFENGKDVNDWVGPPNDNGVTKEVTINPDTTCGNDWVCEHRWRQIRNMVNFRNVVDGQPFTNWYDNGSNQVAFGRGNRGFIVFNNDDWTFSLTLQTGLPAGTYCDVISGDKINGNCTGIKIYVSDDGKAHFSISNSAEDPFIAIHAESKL

Row | SMILES | Activity [1] | Activity (Rattus norvegicus [2]) | Activity (Rattus norvegicus [3]) | IC50 (Alpha-glucosidase) [µM] | Activity [4] | IC50 (PANC-1 [5]) [µM] | IC50 [6] [µM] | Activity (Rattus norvegicus [7]) | Activity [8] | Activity (Rattus norvegicus [9]) | IC50 (Alpha-amylase) [µM] | Activity (Rattus norvegicus [14]) | Flu intensity (PANC-1 [19]) | Activity [23] | Activity (Rattus norvegicus [25]) | Activity (Rattus norvegicus [28]) | Activity (Rattus norvegicus [29]) | Activity [30] | Activity (Rattus norvegicus [31]) | Activity (Rattus norvegicus [33]) | further results
1 | O=C1S/C(=C\c2ccc(Br)cc2)C(=O)N1Cc1cccc([N+](=O)[O-])c1 | Non-Toxic | Active | Active | 20.02 | Non-Toxic | 62.2 | 23.3 | Active | Non-Toxic | Active | 23.9 | Active | 1514 | Non-Toxic | Active | Active | Active | Non-Toxic | Active | Active | Activity [10]: Non-Toxic; Activity (Rattus norvegicus [11]): Active; Activity (Rattus norvegicus [12]): Active; Activity [13]: Non-Toxic; Activity (Rattus norvegicus [15]): Active; Activity [16]: Non-Toxic; Activity [17]: Non-Toxic; Activity (Rattus norvegicus [18]): Active; Activity (Rattus norvegicus [20]): Active; Activity [21]: Toxic; Activity (Rattus norvegicus [22]): inactive; Activity (Rattus norvegicus [24]): Active; Activity [26]: Non-Toxic; Activity (Rattus norvegicus [27]): Active; Activity (Rattus norvegicus [32]): Active
2 | O=C1S/C(=C\c2ccc(Cl)cc2Cl)C(=O)N1Cc1cccc([N+](=O)[O-])c1 |  |  | inactive | 20.94 |  | 152 | 23.2 |  |  | Active | 24.1 | Active | 1474 | Non-Toxic | Active | Active | Active | Non-Toxic | inactive | Active | Activity (Rattus norvegicus [34]): Active; Activity (Rattus norvegicus [35]): Active; Activity (Rattus norvegicus [36]): Active; Activity [37]: Non-Toxic; Activity (Rattus norvegicus [38]): Active; Activity (Rattus norvegicus [39]): Active
3 | CCOc1cc(/C=C2\SC(=O)N(Cc3cccc([N+](=O)[O-])c3)C2=O)ccc1O | Non-Toxic | Active | Active | 10.33 | Non-Toxic | 207 | 14.9 | Active | Non-Toxic | Active | 10.2 | Active | 1324 | Non-Toxic | Active | Active | Active | Non-Toxic | Active | Active | Activity (Rattus norvegicus [34]): Active; Activity [37]: Non-Toxic; Activity (Rattus norvegicus [11]): Active; Activity [13]: Non-Toxic; Activity (Rattus norvegicus [15]): Active; Activity [16]: Non-Toxic; Activity [17]: Non-Toxic; Activity (Rattus norvegicus [18]): Active; Activity (Rattus norvegicus [39]): Active; Activity (Rattus norvegicus [20]): Active; Activity [21]: Toxic; Activity (Rattus norvegicus [22]): inactive; Activity (Rattus norvegicus [24]): Active; Activity [26]: Non-Toxic; Activity (Rattus norvegicus [27]): Active; Activity (Rattus norvegicus [32]): Active
4 | O=C(O)CN1C(=O)S/C(=C\c2ccc3c(c2)OCO3)C1=O |  |  |  |  |  |  |  |  |  |  |  |  |  |  |  |  |  |  |  |  | IC50 [40]: 10.78 µg/mL (≈ 35.1 µM); IC50 (Alpha amylase): 10.26 µg/mL (≈ 33.4 µM)
